Assays:
[1] = ADMA fluorescent probe test: rate of total Type 1 and 2 ROS production by an illuminated photosensitizer (k-value); format: physicochemical; conditions: for k (rate constant of Type 1 and 2 ROS production, slope of Ln(I/I0) of ADMA vs time): free PS illuminated at the wavelength of its maxima, [PS] E-6 (clinically relevant 1-2 uM); for k′ (k/kstd): relative to methylene blue (MB) as standard; for k″ (1−k′): x coordinate of PS grid, MB = origin
From the text: (§1) Discussed below are evaluations methods and system for evaluating a PS for Type ½ Production. The above describes the parameters that would best define an ideal practical PS. […] This can be semi-quantitatively analyzed using fluorescent molecular probes that scavenge Type ½ ROS. Two specific probes ideal for this are 9,10-anthracene bis(methylene) dimalonic acid (ADMA) and singlet oxygen sensor green (SOSG).
(§2) Anthracene and its derivatives are sensitive to both Type 1 and Type 2 ROS, while SOSG is specifically for Type 2 ROS studies.^9 By tracking the fluorescent changes of these probes over time, the Type ½ ROS and rates of production by a set of PSs can be directly compared in a semi-quantitative manner. In the work to follow, AMDA is the anthracene derivative utilized.
ADMA decays according to first order rate law kinetics. As such, the rate of total Type 1 and 2 ROS may be studied by tracking its fluorescence loss over time as a natural log, yielding a linear plot whose slope is the rate constant of Type 1 and 2 ROS production (referred to as the k-value). The greater the rate constant, the more Type 1 and Type 2 ROS being produced, and thus PSs compared under identical conditions (equivalent [PS], [02], flux, temp) can be semi-quantitatively compared.
(§3) Combining the findings of the SOSG and ADMA tests, semi-quantitative comparisons and estimates about the performance of PSs in a given set may be extrapolated, when performed under identical conditions (equivalent [PS], [O2], flux, temp). This will aid in choosing a PS that maximizes PDT efficacy by showing it has a minimum of Type 1 ROS and maximum of Type 2 ROS production, while also producing at a sufficient rate to efficiently ablate tissue.
(§4) The exact method of study is as follows, using a factory default Horiba Duetta:
(§5) 3. Pulse the molecular probe for initial fluorescence
(§6) • a. Simple fluorescence scan • b. […] Ex/Em slits for both=⅔ nm, Integration for 1 second, 5 scans • e. The peak of highest counts is used 2. The PS is illuminated using the wavelength of its maxima for a set amount of time • a. Fixed wavelength fluorescent study mode; choose a time point desired • b. Ex/Em bandwidth=10/1 nm 4. Pulse the molecular probe for fluorescent changes 5. Repeat Steps 2 and 3 until the range time values desired is covered 6. Treat the data • a. Anthracene=Ln(I/I0) vs time; slope=k-value • b. SOSG=I/I0 vs time; slope=S-value
(§7) Using a PS as an assigned origin (standard by which all other PSs are compared to), any PS may be charted by comparing the k and S-values (k/kstd=k′, S/Sstd=S′, k″=1−k′, S″=S′−1) at clinically relevant concentrations (1-2 uM). By plotting the k″ and S″ values as x,y coordinates (respectively), the semi-quantitative comparison of PSs against each other may be directly visualized; the origin PS will have a position of 0,0. The x-axis will then stretch from −∞ to 1, and y-axis from −1 to ∞.

[2] = SOSG (singlet oxygen sensor green) fluorescent probe test: Type 2 ROS production by an illuminated photosensitizer (S-value); format: physicochemical; conditions: for S (slope of SOSG I/I0 vs time, Type 2 ROS production): free PS illuminated at the wavelength of its maxima, [PS] E-6 (clinically relevant 1-2 uM); for S′ (S/Sstd): relative to methylene blue (MB) as standard; for S″ (S′−1): y coordinate of PS grid, MB = origin
From the text: as §1, §2
SOSG functions in a manner opposite to that of the anthracene probe; instead of a fluorescence loss, SOSG experiences a fluorescence enhancement when interacting with Type 2 ROS; Type 1 ROS has no effect. […] Therefore, the steeper the slope (S-value), the more Type 2 ROS being produced.
as §3, §4, §5, §6, §7

[3] = when covalently conjugated to 8PEGA; cited from earlier work
[4] = cited from earlier work

Compound	k (rate constant of Type 1 and 2 ROS production, slope of Ln(I/I0) of ADMA vs time) [1]	k′ (k/kstd) [1]	k″ (1−k′) [1]	S (slope of SOSG I/I0 vs time, Type 2 ROS production) [2]	S′ (S/Sstd) [2]	S″ (S′−1) [2]	k-values [3]	solubility in aqueous media ([4]; when covalently conjugated to 8PEGA)	k-vlaue (E-4) ([1]; [PS] 3.99E−06)	solubility in water [4]	SOSG (E-2) ([2]; [PS] 3.91E−06)
CN(C)c1ccc2nc3ccc(=[N+](C)C)cc-3sc2c1 [MB, Methylene blue]	6.13 E-4 s^−1	1	0.00	0.46 E−2 s^−1	1	0.00					
CCNc1cc2[s+]c3cc(NCC)c(C)cc3nc2cc1C.[Cl-] [NMB, New Methylene Blue]	12.1 E-4 s^−1	1.97	−0.97	0.96 E−2 s^−1	2.09	1.09					
Chlorin e6 [Ce6]	0.94 E-4 s^−1	0.153	0.85	0.73 E−2 s^−1	1.59	0.59	improved	markedly enhanced			
IRDye 700DX HHS Ester [IR700]	1.83 E-4 s^−1	0.299	0.70	2.04 E−2 s^−1	4.43	3.43			2.62 E-4	water soluble, having good solubility	2.89 E-2
Verteporfin	0.16 E-4 s^−1	0.03	0.97	0.06 E−2 s^−1	0.13	−0.87					

— US12005125B2, “Nanoparticles for use in photodynamic therapies and methods of making, evaluating and using the same” (Mi2 Holdings LLC, priority 2020, dated 2024)
